The source of these data is patent US9796733B2, “Imidazo-pyrazine derivatives useful as soluble guanylate cyclase activators” (Merck Sharp & Dohme Corp., priority 2014, dated 2017).

In general, EC50 refers to the concentration giving half of the maximal effect.

One test concerns the target T1, sGC α1/β1 heterodimer (Homo sapiens, UniProt Q02108+Q02153).
T1 construct: expressed in transfected cells; host or cells: CHO-K1 (clone #7, CHO-K1/sGC)
T1 sequence (Q02108 1-690): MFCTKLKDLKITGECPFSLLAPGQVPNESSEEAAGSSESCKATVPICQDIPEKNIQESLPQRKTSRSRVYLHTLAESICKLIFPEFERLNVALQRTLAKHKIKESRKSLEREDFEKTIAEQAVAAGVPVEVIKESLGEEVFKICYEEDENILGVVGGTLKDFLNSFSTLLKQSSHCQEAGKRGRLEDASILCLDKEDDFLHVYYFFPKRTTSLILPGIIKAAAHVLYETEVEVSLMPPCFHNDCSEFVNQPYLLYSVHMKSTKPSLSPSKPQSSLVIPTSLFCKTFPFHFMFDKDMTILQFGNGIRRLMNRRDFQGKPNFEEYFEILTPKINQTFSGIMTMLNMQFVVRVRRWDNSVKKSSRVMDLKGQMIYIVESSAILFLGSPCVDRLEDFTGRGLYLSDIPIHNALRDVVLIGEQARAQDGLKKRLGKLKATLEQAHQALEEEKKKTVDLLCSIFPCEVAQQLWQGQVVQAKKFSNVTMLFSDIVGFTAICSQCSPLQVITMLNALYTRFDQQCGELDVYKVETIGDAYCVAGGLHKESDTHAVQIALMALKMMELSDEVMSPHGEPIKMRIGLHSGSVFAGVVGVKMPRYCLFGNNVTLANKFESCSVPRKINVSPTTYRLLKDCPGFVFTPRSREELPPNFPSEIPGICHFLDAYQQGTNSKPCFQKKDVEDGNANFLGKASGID
T1 sequence (Q02153 1-619): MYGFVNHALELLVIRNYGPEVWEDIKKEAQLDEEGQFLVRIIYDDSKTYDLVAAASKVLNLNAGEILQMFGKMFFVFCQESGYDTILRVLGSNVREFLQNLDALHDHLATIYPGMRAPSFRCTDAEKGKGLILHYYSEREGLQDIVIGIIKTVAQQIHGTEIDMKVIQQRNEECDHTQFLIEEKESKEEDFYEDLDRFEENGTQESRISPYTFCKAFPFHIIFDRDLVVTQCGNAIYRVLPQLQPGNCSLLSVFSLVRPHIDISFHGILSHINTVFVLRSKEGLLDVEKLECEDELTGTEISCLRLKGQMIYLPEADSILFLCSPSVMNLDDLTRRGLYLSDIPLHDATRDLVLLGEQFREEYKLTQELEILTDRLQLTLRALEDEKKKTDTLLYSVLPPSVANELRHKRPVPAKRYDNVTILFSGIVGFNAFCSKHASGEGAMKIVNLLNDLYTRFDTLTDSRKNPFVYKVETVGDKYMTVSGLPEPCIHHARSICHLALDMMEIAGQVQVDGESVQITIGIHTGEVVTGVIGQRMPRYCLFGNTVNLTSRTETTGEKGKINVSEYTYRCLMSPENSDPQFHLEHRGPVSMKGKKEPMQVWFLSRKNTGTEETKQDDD
As to the kind of experiment: Cell-based sGC functional assay (CASA assay): cGMP generation in CHO-K1/sGC cells, HTRF detection. Particulars: for Emax: CHO-K1, percent activation relative to standard Compound A in CHO-K1/sGC cells, read-out: % Act.; for EC50: inflection point (IP) of cGMP generation in CHO-K1/sGC cells, 4P fit, activity expressed as percentage of Compound A. The method, boiled down:
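cGMP was quantified by HTRF after 1 hr, 37° C exposure of thawed CHO-K1 cells expressing sGC α1/β1 to compound, with or without 1 μM DETA-NO. IBMX (0.5 mM) blocked cGMP breakdown, and DMSO was 2.5% final. Percent of standard Compound A's maximal cGMP was fitted (4P) for inflection point.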
In general terms: TR-FRET usually uses a lanthanide donor and a delayed reading to cut background.

Test [1] relates to Spontaneously hypertensive rats (SHR). Description: Acute efficacy in spontaneously hypertensive rats (SHR): telemetry blood pressure lowering after a single oral dose. Type of test: in vivo, rat. The method, boiled down: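 Values are the maximum peak fall in systolic pressure after one oral dose (mpk), computed hourly against baseline from a vehicle dose given the day before. Rats were conscious, male, spontaneously hypertensive, with femoral-aortic telemetry recording 30 s every 10 min, 14 days post-surgery.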

Turning to `Nc1nc(-c2cn3ccnc3c(CCC(F)(F)C(F)(F)F)n2)nc2c1C(c1ccc(F)cn1)(C1CC1)C(=O)N2` (stereo not drawn) [Example 223A, 4-amino-5-cyclopropyl-5-(5-fluoropyridin-2-yl)-2-(8-(3,3,4,4,4-pentafluorobutyl)imidazo [1,2-a]pyrazin-6-yl)-5H-pyrrolo[2,3-d]pyrimidin-6(7H)-one], at sGC α1/β1 heterodimer, the Emax is 84% and the response was half-maximal at 177 nM (EC50). In addition, in test [1] (P.O. 1.0 mpk), the “Maximum peak decrease of systolic blood pressure (SBP) in SHR, Cat.” value (“Maximum peak decrease” for short) is “B (Category B=SBP in SHRs 20-40 mmHg)”.

Take `CC(C)c1ccc(C2(C)C(=O)Nc3nc(-c4cn5ccnc5c(CCC(F)(F)C(F)(F)F)n4)nc(N)c32)nc1` (stereo not drawn) [Example 225A, 4-amino-5-(5-isopropylpyridin-2-yl)-5-methyl-2-(8-(3,3,4,4,4-pentafluorobutyl)imidazo [1,2-a]pyrazin-6-yl)-5H-pyrrolo[2,3-d]pyrimidin-6(7H)-one]: on sGC α1/β1 heterodimer, the Emax was determined as 82% and a half-maximal response (EC50) required 166 nM. Besides, the “Maximum peak decrease” value in test [1] (P.O. 1.0 mpk) was “A (Category A=SBP in SHRs<20 mmHg)”.

Turning to `CC1(c2ccc(Cl)cn2)C(=O)Nc2nc(-c3cn4ccnc4c(CCC(F)(F)C(F)(F)F)n3)nc(N)c21` (stereo not drawn) [Example 228A, 4-amino-5-(5-chloropyridin-2-yl)-5-methyl-2-(8-(3,3,4,4,4-pentafluorobutyl)imidazo [1,2-a]pyrazin-6-yl)-5H-pyrrolo[2,3-d]pyrimidin-6(7H)-one], on sGC α1/β1 heterodimer, the Emax came to 108% and the midpoint of the response, the EC50, lay at 20 nM. In addition, the “Maximum peak decrease” value in test [1] (P.O. 0.3 mpk) is given as “B (Category B=SBP in SHRs 20-40 mmHg)”.

Regarding `CC1(c2cccc(F)c2)C(=O)Nc2nc(-c3cn4ccnc4c(CCC(F)(F)C(F)(F)F)n3)nc(N)c21` (stereo not drawn) [Example 231A, 4-amino-5-(3-fluorophenyl)-5-methyl-2-(8-(3,3,4,4,4-pentafluorobutyl)imidazo [1,2-a]pyrazin-6-yl)-5H-pyrrolo[2,3-d]pyrimidin-6(7H)-one], at sGC α1/β1 heterodimer, the Emax amounted to 156% and the EC50 was 50 nM. For the same compound, the “Maximum peak decrease” value in test [1] (P.O. 0.3 mpk) is reported as “A (Category A=SBP in SHRs<20 mmHg)”.

As for `CC1(c2ccccc2)C(=O)Nc2nc(-c3cn4ccnc4c(CCC(F)(F)C(F)(F)F)n3)nc(N)c21` (stereo not drawn) [Example 232B, 4-amino-5-methyl-2-(8-(3,3,4,4,4-pentafluorobutyl)imidazo [1,2-a]pyrazin-6-yl)-5-phenyl-5H-pyrrolo[2,3-d]pyrimidin-6(7H)-one], on sGC α1/β1 heterodimer, the Emax worked out at 60% and a half-maximal response (EC50) required 17 nM. Further, the “Maximum peak decrease” value in test [1] (P.O. 1.0 mpk) is on record as “C (Category C=SBP in SHRs>40 mmHg)”.

Turning to `Nc1nc(-c2cn3ccnc3c(CCC(F)(F)C(F)(F)F)n2)nc2c1C(c1ccc(F)cc1)(C1CC1)C(=O)N2` (stereo not drawn) [Example 233B, 4-amino-5-cyclopropyl-5-(4-fluorophenyl)-2-(8-(3,3,4,4,4-pentafluorobutyl)imidazo [1,2-a]pyrazin-6-yl)-5H-pyrrolo[2,3-d]pyrimidin-6(7H)-one], on sGC α1/β1 heterodimer, the Emax came to 131% and the EC50 worked out at 43 nM. In addition, the “Maximum peak decrease” value in test [1] (P.O. 0.3 mpk) is “B (Category B=SBP in SHRs 20-40 mmHg)”.

Turning to `CC1(c2ccc(OC(F)(F)F)cc2)C(=O)Nc2nc(-c3cn4ccnc4c(CCC(F)(F)C(F)(F)F)n3)nc(N)c21` (stereo not drawn) [Example 234B, 4-amino-5-methyl-2-(8-(3,3,4,4,4-pentafluorobutyl)imidazo [1,2-a]pyrazin-6-yl)-5-(4-(trifluoromethoxy)phenyl)-5H-pyrrolo[2,3-d]pyrimidin-6(7H)-one], at sGC α1/β1 heterodimer, the Emax amounted to 105% and it took 27 nM to reach a half-maximal effect (EC50). Also, the “Maximum peak decrease” value in test [1] (P.O. 0.3 mpk) was “A (Category A=SBP in SHRs<20 mmHg)”.

On to `Nc1nc(-c2cn3ccnc3c(CCC(F)(F)C(F)(F)F)n2)nc2c1C(c1ccc(Cl)cc1)(C1CC1)C(=O)N2` (stereo not drawn) [Example 235B, 4-amino-5-(4-chlorophenyl)-5-cyclopropyl-2-(8-(3,3,4,4,4-pentafluorobutyl)imidazo [1,2-a]pyrazin-6-yl)-5H-pyrrolo[2,3-d]pyrimidin-6(7H)-one], for which, at sGC α1/β1 heterodimer, the Emax was 148% and the EC50 came to 36 nM. The “Maximum peak decrease” value in test [1] (P.O. 0.3 mpk) is given as “B (Category B=SBP in SHRs 20-40 mmHg)”.

In the case of `CC1(c2ccc(Cl)cc2)C(=O)Nc2nc(-c3cn4ccnc4c(CCC(F)(F)C(F)(F)F)n3)nc(N)c21` (stereo not drawn) [Example 238A, 4-amino-5-(4-chlorophenyl)-5-methyl-2-(8-(3,3,4,4,4-pentafluorobutyl)imidazo [1,2-a]pyrazin-6-yl)-5H-pyrrolo[2,3-d]pyrimidin-6(7H)-one], at sGC α1/β1 heterodimer, the Emax came out at 131% and the concentration giving a half-maximal response (EC50) came out at 71 nM. Further, the “Maximum peak decrease” value in test [1] (P.O. 0.3 mpk) was “C (Category C=SBP in SHRs>40 mmHg)”.

Take `CCC1(c2ccc(F)cc2)C(=O)Nc2nc(-c3cn4ccnc4c(CCC(F)(F)C(F)(F)F)n3)nc(N)c21` (stereo not drawn) [Example 239A, 4-amino-5-ethyl-5-(4-fluorophenyl)-2-(8-(3,3,4,4,4-pentafluorobutyl)imidazo [1,2-a]pyrazin-6-yl)-5H-pyrrolo[2,3-d]pyrimidin-6(7H)-one]: at sGC α1/β1 heterodimer, the Emax was found to be 97% and the EC50 is 53 nM. Besides, in test [1] (P.O. 0.3 mpk), the “Maximum peak decrease” value is reported as “B (Category B=SBP in SHRs 20-40 mmHg)”.

For `CC1(c2ccc(C3CC3)nc2)C(=O)Nc2nc(-c3cn4ccnc4c(CCC(F)(F)C(F)(F)F)n3)nc(N)c21` (stereo not drawn) [Example 240B, 4-amino-5-(6-cyclopropylpyridin-3-yl)-5-methyl-2-(8-(3,3,4,4,4-pentafluorobutyl)imidazo [1,2-a]pyrazin-6-yl)-5H-pyrrolo[2,3-d]pyrimidin-6(7H)-one], at sGC α1/β1 heterodimer, the Emax is 105% and the half-maximal effective concentration (EC50) turned out to be 53 nM. Besides, the “Maximum peak decrease” value in test [1] (P.O. 1.0 mpk) was “A (Category A=SBP in SHRs<20 mmHg)”.

`CCc1ccc(C2(C)C(=O)Nc3nc(-c4cn5ccnc5c(CCC(F)(F)C(F)(F)F)n4)nc(N)c32)cn1` (stereo not drawn) [Example 243B, 4-amino-5-(6-ethylpyridin-3-yl)-5-methyl-2-(8-(3,3,4,4,4-pentafluorobutyl)imidazo [1,2-a]pyrazin-6-yl)-5H-pyrrolo[2,3-d]pyrimidin-6(7H)-one]: at sGC α1/β1 heterodimer, the Emax was found to be 106% and the response was half-maximal at 208 nM (EC50). The “Maximum peak decrease” value in test [1] (P.O. 1.0 mpk) is “A (Category A=SBP in SHRs<20 mmHg)”.

As for `CCOc1ccc(C2(C)C(=O)Nc3nc(-c4cn5ccnc5c(CCC(F)(F)C(F)(F)F)n4)nc(N)c32)cn1` (stereo not drawn) [Example 244B, 4-amino-5-(6-ethoxypyridin-3-yl)-5-methyl-2-(8-(3,3,4,4,4-pentafluorobutyl)imidazo [1,2-a]pyrazin-6-yl)-5H-pyrrolo[2,3-d]pyrimidin-6(7H)-one], on sGC α1/β1 heterodimer, the Emax is 109% and a half-maximal effect (EC50) was put at 81 nM. The “Maximum peak decrease” value in test [1] (P.O. 3.0 mpk) was “C (Category C=SBP in SHRs>40 mmHg)”.

In the case of `Nc1nc(-c2cn3ccnc3c(CCC(F)(F)C(F)(F)F)n2)nc2c1C(c1ccc(Cl)cn1)(C1CC1)C(=O)N2` (stereo not drawn) [Example 245B, 4-amino-5-(5-chloropyridin-2-yl)-5-cyclopropyl-2-(8-(3,3,4,4,4-pentafluorobutyl)imidazo [1,2-a]pyrazin-6-yl)-5H-pyrrolo[2,3-d]pyrimidin-6(7H)-one], at sGC α1/β1 heterodimer, the Emax is 118% and the half-maximal effective concentration (EC50) turned out to be 77 nM. Moreover, the “Maximum peak decrease” value in test [1] (P.O. 1.0 mpk) is recorded as “C (Category C=SBP in SHRs>40 mmHg)”.
